Reference: patent publication US10364263B2, “Cyclic phosphates and cyclic phosphoramidates for the treatment of neurologic disorders” (Retrophin, Inc., priority 2015, dated 2019)

Test system: PANK2 silenced human neuroblastoma IMR32 cells (PANK2−/−)
Experiment: Coenzyme A assay in PANK2 silenced cells (LC-MS quantification of free CoA)
Type: cell-based
Conditions: compound added twice (24 h + 24 h), relative to 0.1% DMSO controls
Method: A human neuroblastoma IMR32 cell line (ATCC) with stably PANK2 silencing was obtained by lentiviral-delivered small hairpin RNA and cultured in MEM (Invitrogen) supplemented with 10% fetal bovine serum, 2 mM glutamine, 1% penicillin-streptomycin, 1 mM sodium pyruvate, 1 mM non essential amino acids and 1.5 g/l sodium bicarbonate.
For lentiviral shRNA expression, Human Emryonic Kidney HEK-293T cells (ATCC) were transfected with the appropriate pGFP-Lenti-shRNA constructs and packaging plasmids according to manufacturer's protocol (Origene Technologies, Inc.). Four different gene-specific shRNA expression vectors designed against multiple splice variants of PANK2 (Gene ID 80025) were used for transfection. A non-silencing shRNA construct (scrambled shRNA) and an empty vector expressing GFP alone were used as negative controls. The GFP tag subcloned into the lentiviral vectors was used to monitor the transfection efficiency.
IMR32 cells were plated on 150 cm dishes 48 h before transduction with lentiviral particles.
Three days after transduction medium was removed and replaced with fresh medium containing […] puromycin. Medium was replaced every 48 h. Levels of PANK2 expression on selected clones was assessed by Western Blot analysis.
To quantify CoA, PANK2^−/− IMR32 cells were plated on 12-well culture plates (Corning) at a density of 0.2×10^6 cells per well. After 72 h, compounds were freshly dissolved in DMSO and added to the culture medium to yield a final solvent concentration of 0.1% (v/v). Controls with medium containing 0.1% DMSO without test compounds were also included in each plate. Compound treated cells were incubated for 24 h at 37° C. Treatment was repeated after 24 h with newly dissolved compound and cells were further incubated at 37° C. for additional 24 h. Before LC-MS analysis of CoA levels, cells were harvested, counted, and collected in a 15 ml falcon tube and centrifuged at 200×g for 5 min at 4° C. Supernatant was removed and cell pellet was washed in 10 ml of ice-cold PBS. To further confirm that the numbers of cells in each sample were equivalent, an equal fraction of pellet was collected from each sample and subjected to protein determination analysis. After centrifugation and supernatant removal, the cell pellet was rapidly frozen in Liquid Nitrogen and stored at −80° C. until analysis.
Intracellular CoA levels were calculated considering an intracellular volume of 1 million cells=2 μl.
The 1×10^6 cellular pellet was extracted with 120 μl of aqueous 20% TFA. This solution was stirred for 2 min, sonicated in ultrasonic bath for 2 min, then stirred again for 1 min, and centrifuged for 15 min at 14000 g and at 4° C.
100 μL samples of supernatant were dried under N2 at 20° C. in the dark.
Samples were re-dissolved in 100 μl of 10 mM NH4^+ AcO^− buffer pH 5.1+IS (Dextrorphan 50 ng/ml), stirred for 2 min, sonicated in ultrasonic bath for 1 min, then stirred again for 1 min, and injected into LC-MS.
LC-MS/MS was performed using an Agilent HPLC (1100 Series, USA). The LC system was interfaced with an API-4000 Q-Trap triple quadrupole mass spectrometer (AB Sciex, Toronto, Canada) equipped with a TurbolonSpray ionization source operating in positive ion mode. Analyst™ software version 1.6 (AB Sciex, Toronto, Canada) was used for data acquisition and processing. CoA was separated using a Luna C18 column (2.0×50 mm; 5 μm particle size), column at 25° C. and flow rate of 0.2 ml/min. Injection volume was 15 μl. The mobile phases consisted of water containing 10 mM ammonium acetate pH 7 (mobile phase A) and MeCN-2-propanol 9:1 (mobile phase B). Elution was performed using a gradient starting at 2% B, holding at 2% B until 0.1 min, increasing to 98% B at 3.2 min, holding at 98% B until 4.5 min, returning to 2% B at 4.6 min and holding at 2% B until 7.5 min. Precursor ions and MRM transitions used were: CoA m/z 768.1→261.6 and 768.1→136.1. […]

SMILES	PANK2−/− CoA (Fold Increase): fold increase in Coenzyme A (CoA) levels relative to controls [Fold Increase]
COC(=O)CCNC(=O)[C@@H]1OP(=O)(NCCc2ccccc2)OCC1(C)C (stereo partly drawn) [compound 112, methyl 3-((4R)-5,5-dimethyl-2-oxido-2-(phenethylamino)-1,3,2-dioxaphosphinane-4-carboxamido)propanoate]	1.42
COC(=O)CCNC(=O)[C@@H]1O[P@](=O)(Oc2ccc(F)cc2)OCC1(C)C [2-179, methyl 3-((2R,4R)-2-(4-fluorophenoxy)-5,5-dimethyl-2-oxido-1,3,2-dioxaphosphinane-4-carboxamido)propanoate]	87.22
COC(=O)CCNC(=O)[C@@H]1OP(=O)(OCOC(=O)c2scnc2C(C)(C)C)OCC1(C)C (stereo partly drawn) [2-173, (((4R)-4-((3-methoxy-3-oxopropyl)carbamoyl)-5,5-dimethyl-2-oxido-1,3,2-dioxaphosphinan-2-yl)oxy)methyl 4-(tert-butyl)thiazole-5-carboxylate]	2.57
COC(=O)CCNC(=O)[C@@H]1O[P@](=O)(OCOC(=O)N[C@@H](CSC(=O)C(C)(C)C)C(=O)OCc2ccccc2)OCC1(C)C [2-206, benzyl N-(((((2R,4R)-4-((3-methoxy-3-oxopropyl)carbamoyl)-5,5-dimethyl-2-oxido-1,3,2-dioxaphosphinan-2-yl)oxy)methoxy)carbonyl)-S-pivaloyl-L-cysteinate]	64.41
COC(=O)CCNC(=O)[C@@H]1O[P@](=O)(OCOC(=O)NCCSC(=O)[C@@H](N)C(C)C)OCC1(C)C [2-193, methyl 3-((2R,4R)-2-((((2-((L-valyl)thio)ethyl)carbamoyl)oxy)methoxy)-5,5-dimethyl-2-oxido-1,3,2-dioxaphosphinane-4-carboxamido)propanoate]	5.03
COC(=O)CCNC(=O)[C@@H]1O[P@@](=O)(OCOC(=O)c2cc(C(C)(C)C)n[nH]2)OCC1(C)C [2-186, (((2S,4R)-4-((3-methoxy-3-oxopropyl)carbamoyl)-5,5-dimethyl-2-oxido-1,3,2-dioxaphosphuian-2-yl)oxy)methyl 3-(tert-butyl)-1H-pyrazole-5-carboxylate]	101.14
COC(=O)CCNC(=O)[C@@H]1O[P@](=O)(N2CCS(=O)(=O)CC2)OCC1(C)C [compound 138, methyl 3-((2S,4R)-2-(1,1-dioxidothiomorpholino)-5,5-dimethyl-2-oxido-1,3,2-dioxaphosphinane-4-carboxamido) propanoate]	1.7
CC(C)OC(=O)OCOP1(=O)OCC(C)(C)[C@H](C(=O)NCCC(=O)O)O1 (stereo partly drawn) [Compound No. 104, 3-((4R)-2-(((isopropoxycarbonyl)oxy)methoxy)-5,5-dimethyl-2-oxido-1,3,2-dioxaphosphinane-4-carboxamido)propanoic acid]	75.24
COC(=O)CCNC(=O)[C@@H]1O[P@](=O)(OCOC(=O)c2scnc2C(C)C)OCC1(C)C [2-188, (((2R,4R)-4-((3-methoxy-3-oxopropyl)carbamoyl)-5,5-dimethyl-2-oxido-1,3,2-dioxaphosphinan-2-yl)oxy)methyl 4-isopropylthiazole-5-carboxylate]	131.48
COC(=O)CCNC(=O)[C@@H]1O[P@@](=O)(N2CCS(=O)(=O)CC2)OCC1(C)C [compound 137, methyl 3-((2R,4R)-2-(1,1-dioxidothiomorpholino)-5,5-dimethyl-2-oxido-1,3,2-dioxaphosphinane-4-carboxamido) propanoate]	1.76
COC(=O)CCNC(=O)[C@@H]1O[P@@](=O)(OCOC(=O)c2ccnn2C)OCC1(C)C [2-184, (((2S,4R)-4-((3-methoxy-3-oxopropyl)carbamoyl)-5,5-dimethyl-2-oxido-1,3,2-dioxaphosphinan-2-yl)oxy)methyl 1-methyl-1H-pyrazole-5-carboxylate]	21.67
COC(=O)CCNC(=O)[C@@H]1OP(=O)(OCOC(=O)c2ccno2)OCC1(C)C (stereo partly drawn) [Compound No. 2-141, (((4R)-4-((3-methoxy-3-oxopropyl)carbamoyl)-5,5-dimethyl-2-oxido-1,3,2-dioxaphosphinan-2-yl)oxy)methyl isoxazole-5-carboxylate]	7.62
COC(=O)CCNC(=O)[C@@H]1O[P@@](=O)(OCOC(=O)N[C@@H](CSC(=O)C(C)(C)C)C(=O)O)OCC1(C)C [2-200, N-(((((2S,4R)-4-((3-methoxy-3-oxopropyl)carbamoyl)-5,5-dimethyl-2-oxido-1,3,2-dioxaphosphinan-2-yl)oxy)methoxy)carbonyl)-S-pivaloyl-L-cysteine]	1.84
COC(=O)CCNC(=O)[C@@H]1O[P@@](=O)(OCOC(=O)c2scnc2C(C)(C)C)OCC1(C)C [2-192, (((2S,4R)-4-((3-methoxy-3-oxopropyl)carbamoyl)-5,5-dimethyl-2-oxido-1,3,2-dioxaphosphinan-2-yl)oxy)methyl 4-(tert-butyl)thiazole-5-carboxylate]	2.52
COC(=O)CCNC(=O)[C@@H]1O[P@](=O)(Oc2ccc(C(F)(F)F)nc2)OCC1(C)C [2-198, methyl 3-((2R,4R)-5,5-dimethyl-2-oxido-2-((6-(trifluoromethyl)pyridin-3-yl)oxy)-1,3,2-dioxaphosphinane-4-carboxamido)propanoate]	13.6
COC(=O)CCNC(=O)[C@@H]1O[P@@](=O)(Oc2ccc(F)cc2)OCC1(C)C [2-178, methyl 3-((2S,4R)-2-(4-fluorophenoxy)-5,5-dimethyl-2-oxido-1,3,2-dioxaphosphinane-4-carboxamido)propanoate]	2.3
COC(=O)CCNC(=O)[C@@H]1O[P@](=O)(N[C@@H](C)C(=O)OC)OCC1(C)C [1-53, methyl 3-((2S,4R)-2-(((S)-1-methoxy-1-oxopropan-2-yl)amino)-5,5-dimethyl-2-oxido-1,3,2-dioxaphosphinane-4-carboxamido)propanoate]	2.37
COC(=O)CCNC(=O)[C@@H]1OP(=O)(OCOC(=O)N[C@@H](CSC(=O)C(C)(C)C)C(=O)OCC(=O)c2ccccc2)OCC1(C)C (stereo partly drawn) [2-202, 2-oxo-2-phenylethyl N-(((((4R)-4-((3-methoxy-3-oxopropyl)carbamoyl)-5,5-dimethyl-2-oxido-1,3,2-dioxaphosphinan-2-yl)oxy)methoxy)carbonyl)-S-pivaloyl-L-cysteinate]	2.62
COC(=O)CCNC(=O)[C@@H]1O[P@@](=O)(N2CCOCC2)OCC1(C)C [compound 136, methyl 3-((2R,4R)-5,5-dimethyl-2-morpholino-2-oxido-1,3,2-dioxaphosphinane-4-carboxamido)propanoate]	1.93
